Reference: the NIST ThermoML archive (doi:10.1016/j.tca.2012.05.023)

Test: molar heat capacity at constant pressure
Details: 101.33 kPa, Crystal, Vacuum adiabatic calorimetry

O=C([O-])c1cnccn1.O=C([O-])c1cnccn1.O=C([O-])c1cnccn1.[Cr+3] [chromium(III) pyrazine-2-carboxylate]
Details | molar heat capacity at constant pressure [J/K/mol]
78.86 K | 155.98
80 K | 158.16
80.64 K | 158.92
83.3 K | 162.11
85 K | 164.76
85.88 K | 166.03
88.38 K | 169.59
90 K | 171.35
90.8 K | 172.28
93.14 K | 175.35
95 K | 177.94
95.47 K | 178.53
97.73 K | 181.47
99.91 K | 184.54
100 K | 184.53
102.06 K | 187.64
104.19 K | 189.79
105 K | 191.12
106.26 K | 192.72
108.39 K | 195.56
110 K | 197.7
110.39 K | 198.32
112.38 K | 200.9
114.31 K | 203.62
115 K | 204.28
116.37 K | 206.2
118.23 K | 208.83
120 K | 210.86
120.16 K | 211.45
122.08 K | 214.08
125 K | 217.43
125.04 K | 217.8
128.55 K | 221.83
130 K | 223.99
131.51 K | 226.29
134.47 K | 230.41
135 K | 230.55
137.5 K | 234.21
140 K | 237.1
140.45 K | 237.72
143.48 K | 241.61
145 K | 243.64
146.44 K | 245.42
149.4 K | 249.27
150 K | 250.18
152.43 K | 252.82
155 K | 256.7
155.38 K | 257.11
158.34 K | 260.91
160 K | 263.21
161.37 K | 264.59
164.4 K | 269.32
165 K | 269.71
167.42 K | 273.11
170 K | 276.2
170.38 K | 276.93
173.34 K | 280.52
175 K | 282.68
176.44 K | 284.26
179.4 K | 287.73
180 K | 289.15
182.42 K | 292.31
185 K | 295.6
186.48 K | 297.74
190 K | 302.03
190.68 K | 302.64
193.71 K | 306.32
195 K | 308.46
196.73 K | 310.4
199.76 K | 313.83
200 K | 314.86
202.79 K | 317.64
205 K | 321.25
205.75 K | 321.74
208.71 K | 325.63
210 K | 327.63
211.73 K | 329.9
214.76 K | 333.75
215 K | 333.98
217.79 K | 337.53
220 K | 340.32
220.81 K | 341.42
223.77 K | 344.95
225 K | 346.64
226.8 K | 348.56
229.76 K | 352.76
230 K | 352.95
232.79 K | 356.86
